Laboratory results reported in ChEMBL document CHEMBL1201862, “PubChem BioAssay data set” (2004).
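Cells were grown in 96-well plates and exposed to each compound for 48 hours at five concentrations; endpoints were interpolated linearly between bracketing concentrations, or set to the highest concentration if not reached. GI50 is the concentration that inhibits growth by half.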 Active and inactive are the calls of the source. Cut-off read from the data, not from the text of the source: active = GI50 up to about 1.1 µM and inactive = higher.

Key:
Test in all cases: NCI anticancer screen, dose series, 48 h
RPMI-8226 = system: RPMI-8226
SK-MEL-5 = system: SK-MEL-5
NCI-H460 = system: NCI-H460
SF-539 = system: SF-539
SNB-75 = system: SNB-75
EKVX = system: EKVX
K562 = system: K562
SN12C = system: SN12C
SK-MEL-28 = system: SK-MEL-28
LOX IMVI = system: LOX IMVI
NCI/ADR-RES = system: NCI/ADR-RES
HOP-62 = system: HOP-62
HCT-116 = system: HCT-116
MOLT-4 = system: MOLT-4
MDA-MB-435 = system: MDA-MB-435
NCI-H522 = system: NCI-H522
SK-OV-3 = system: SK-OV-3
UO-31 = system: UO-31
786-0 = system: 786-0
SF-295 = system: SF-295
Malme-3M = system: Malme-3M
Hs-578T = system: Hs-578T
MDA-MB-231 = system: MDA-MB-231
UACC-62 = system: UACC-62
HCT-15 = system: HCT-15
UACC-257 = system: UACC-257
OVCAR-4 = system: OVCAR-4
BT-549 = system: BT-549
NCI-H226 = system: NCI-H226
HL-60 = system: HL-60
SR = system: SR
HT-29 = system: HT-29
OVCAR-5 = system: OVCAR-5
OVCAR-8 = system: OVCAR-8
M14 = system: M14
SW-620 = system: SW-620
A549 = system: A549
CCRF-CEM = system: CCRF-CEM
ACHN = system: ACHN
U-251 = system: U-251
NCI-H23 = system: NCI-H23
OVCAR-3 = system: OVCAR-3
SF-268 = system: SF-268
CAKI-1 = system: CAKI-1
IGROV-1 = system: IGROV-1
PC-3 = system: PC-3
T47D = system: T47D
MCF7 = system: MCF7
KM12 = system: KM12
SNB-19 = system: SNB-19
TK-10 = system: TK-10
HOP-92 = system: HOP-92
SK-MEL-2 = system: SK-MEL-2
A498 = system: A498
COLO 205 = system: COLO 205
DU-145 = system: DU-145
MDA-N = system: MDA-N
RXF 393 = system: RXF 393

Q: Which results are given for `CC(C)C(Br)C(=O)NCC(=O)O` (stereo not drawn)?
A: GI50 (RPMI-8226): > 100 µM (inactive); GI50 (SK-MEL-5): > 100 µM (inactive); GI50 (NCI-H460): > 100 µM (inactive); GI50 (SF-539): > 100 µM (inactive); GI50 (SNB-75): > 100 µM (inactive); GI50 (EKVX): > 100 µM (inactive); GI50 (K562): > 100 µM (inactive); GI50 (SN12C): > 100 µM (inactive); GI50 (SK-MEL-28): > 100 µM (inactive); GI50 (LOX IMVI): > 100 µM (inactive); GI50 (NCI/ADR-RES): > 100 µM (inactive); GI50 (HOP-62): > 100 µM (inactive); GI50 (HCT-116): > 100 µM (inactive); GI50 (MOLT-4): > 100 µM (inactive); GI50 (MDA-MB-435): > 100 µM (inactive); GI50 (NCI-H522): > 100 µM (inactive); GI50 (SK-OV-3): > 100 µM (inactive); GI50 (UO-31): > 100 µM (inactive); GI50 (786-0): > 100 µM (inactive); GI50 (SF-295): > 100 µM (inactive); GI50 (Malme-3M): > 100 µM (inactive); GI50 (Hs-578T): > 100 µM (inactive); GI50 (MDA-MB-231): > 100 µM (inactive); GI50 (UACC-62): > 100 µM (inactive); GI50 (HCT-15): > 100 µM; GI50 (UACC-257): > 100 µM (inactive); GI50 (OVCAR-4): > 100 µM (inactive); GI50 (BT-549): > 100 µM (inactive); GI50 (NCI-H226): > 100 µM (inactive); GI50 (HL-60): 0.245 µM (active); GI50 (SR): > 100 µM (inactive); GI50 (HT-29): > 100 µM (inactive); GI50 (OVCAR-5): > 100 µM (inactive); GI50 (OVCAR-8): > 100 µM (inactive); GI50 (M14): > 100 µM (inactive); GI50 (SW-620): > 100 µM (inactive); GI50 (A549): > 100 µM (inactive); GI50 (CCRF-CEM): > 100 µM (inactive); GI50 (ACHN): > 100 µM (inactive); GI50 (U-251): > 100 µM (inactive); GI50 (NCI-H23): > 100 µM (inactive); GI50 (OVCAR-3): > 100 µM (inactive); GI50 (SF-268): > 100 µM (inactive); GI50 (CAKI-1): > 100 µM (inactive); GI50 (IGROV-1): > 100 µM (inactive); GI50 (PC-3): > 100 µM (inactive); GI50 (T47D): > 100 µM (inactive); GI50 (MCF7): > 100 µM (inactive); GI50 (KM12): > 100 µM (inactive); GI50 (SNB-19): > 100 µM (inactive); GI50 (TK-10): > 100 µM (inactive); GI50 (HOP-92): > 100 µM (inactive); GI50 (SK-MEL-2): > 100 µM (inactive); GI50 (A498): > 100 µM (inactive); GI50 (COLO 205): > 100 µM (inactive); GI50 (DU-145): > 100 µM (inactive); GI50 (MDA-N): > 100 µM (inactive); GI50 (RXF 393): > 100 µM (inactive)
